In a melting point compilation (Tetko et al.):

Settings: a range is the spread between reports

Row | melting point [°C] | SMILES
1 | -63.1 to -63 | CC(C)c1cccc(C(C)C)c1
2 | 42 to 43 | COC(=O)c1cc(OC)cc(OC)c1
3 | 53 to 58 | Oc1ccc2c(c1)CCC2
4 | 126 to 128 | O=C1Cc2ccccc2N1
5 | 40 to 40.5 | CC(=O)Oc1ccccc1[N+](=O)[O-]
6 | 70 to 74 | CCN(CC)c1ccc2c(C)cc(=O)oc2c1
7 | 108 to 111 | O=[N+]([O-])c1ccc(N=C=S)cc1
8 | 60 to 61 | COC(=O)c1ccc(C=O)cc1
9 | 117 to 118 | O=C(O)CCC(=O)c1ccccc1
10 | 145 to 146 | Cc1cccc(C(=O)O)c1C
11 | 98 to 99 | CC(=O)c1cccc(C#N)c1
12 | -18 to -17.5 | O=C(O)C(F)(F)C(F)(F)C(F)(F)F
13 | -23 to -22 | CCOC(=O)CC#N
14 | 188 to 189 | O=C(O)c1ccc(F)cc1F
15 | -43.5 to -43 | CCc1ccc(Br)cc1
16 | 2 to 3 | COc1ccccc1Br
17 | -4 to 0 | CCCCCCCCCCC=O
18 | 148 | NNC(=O)c1ccccc1O
19 | 148 to 150 | O=C(O)COc1ccccc1Cl
20 | 36 to 37.5 | CCOc1ccc2ccccc2c1
21 | -74 to -73.6 | FC(Br)(Br)Br
22 | 79 to 82.5 | CC(C)(O)C(=O)O
23 | -83 to -82.7 | CCc1ccccc1Cl
24 | 125 to 128 | Nc1ncccn1
25 | 74 to 75 | Cn1c(=O)ccc2ccccc21

Row | melting point [°C] | SMILES
26 | 109 to 110 | CCc1ccc2c(c1)C(=O)c1ccccc1C2=O
27 | 120 to 121 | Cn1ccc(=O)n(C)c1=O
28 | 237 to 238 | O=C(O)c1cccc(Cl)c1[N+](=O)[O-]
29 | 17.8 to 18.2 | OCC(O)CO
30 | -93.1 to -92 | CC(=O)C(C)C
31 | 162 to 163 | O=C(O)c1c(Cl)cc(Cl)cc1Cl
32 | 87 to 88 | Nc1ccc2ncsc2c1
33 | 50 to 51.5 | C=C(C(=O)O)C(F)(F)F
34 | 36 to 36.9 | C=C(C)[C@@H]1CCC2=CC(=O)C[C@@H](C)[C@]2(C)C1
35 | -6.2 to -6 | Cc1ccc(C)c(C)c1C
36 | 179 to 181 | O=C1c2c(O)cccc2Cc2cccc(O)c21
37 | 222 to 226 | CC12CCC(=O)C=C1CCC1C2C(=O)CC2(C)C1CCC2(O)C(=O)CO (stereo not given)
38 | 5 to 7.3 | c1ccc(C2CCCCC2)cc1
39 | 41.5 to 44.5 | CCCCCCCCCCCCC(=O)O
40 | 19 to 20 | SCc1ccc(Cl)cc1
41 | -55 to -54 | CC(C)CCCCC(C)C
42 | -85 to -80 | CC1OC1C (stereo not given)
43 | 177 to 180 | O=C(O)C=Cc1cccc(Br)c1
44 | -168 | C=CC(C)C
45 | 184 to 187 | O=C(O)c1ccc([N+](=O)[O-])o1
46 | 128 to 129 | O=C(O)CCCCCCCCCCC(=O)O
47 | 106 to 110 | C1CNCCN1
48 | 220 | Nc1nc(Cl)cc(Cl)n1
49 | -64 to -63 | CCNc1ccccc1
50 | -10 to -9.2 | C[C@H]1CC[C@@H](O)CC1

Row | melting point [°C] | SMILES
51 | -43.3 to -43 | CCCCCCC=O
52 | -124 | C=C(C)CC(C)C
53 | 104 to 105 | CC(=O)Nc1cccc(C(F)(F)F)c1
54 | 61 to 64.5 | CCOc1ccc(C=O)cc1OC
55 | 41 to 42 | BrCCCCOc1ccccc1
56 | 70 to 71.5 | Cc1ccc(OC(=O)c2ccccc2)cc1
57 | 39 to 40 | c1ccc(COc2ccccc2)cc1
58 | -48 to -47.8 | Cc1cccc(Cl)c1
59 | 81 to 82.5 | O=C(c1ccccc1)c1ccc(Br)cc1
60 | 223 to 224 | Cc1cc(C2(c3ccc(O)c(C)c3)OC(=O)c3ccccc32)ccc1O
61 | 12 to 13 | CC(C)=CC=C(C)C
62 | 116 to 119 | C=Cc1ccc(-c2ccccc2)cc1
63 | 26.8 to 28 | c1ccc(Oc2ccccc2)cc1
64 | 83 to 88 | CC(=O)Nc1cccc(F)c1
65 | -103 to -102 | CCCSCCC
66 | 7 to 9 | Cc1cccc(-c2cccc(C)c2)c1
67 | 118 to 120 | CC(C)(Oc1ccc(Cl)cc1)C(=O)O
68 | 25 to 26 | CC1(O)CCCCC1
69 | 43.5 to 44 | CCOC(=O)c1ccc(OC)c(OC)c1
70 | 39 to 40 | O=[N+]([O-])c1ccc(C(F)(F)F)cc1
71 | 16 to 18.5 | Nc1cccc(Br)c1
72 | 148 | CC(=O)NC12CC3CC(CC(C3)C1)C2
73 | 9.8 to 10 | Cc1cc(C)cc(N)c1
74 | -20 to -19.1 | C1=CC2C=CC1C2

Further lines, the compound ahead of its results:

Row | SMILES | melting point [°C]
75 | ClC(Cl)c1ccccc1 | -17 to -16
76 | Cc1ccccc1 | -95 to -93
77 | O=C(O)c1cc(F)cc(F)c1 | 121 to 122
78 | CCCCC1(CC)C(=O)NC(=O)NC1=O | 126 to 128
79 | CCOCCOC(C)=O | -62 to -61
80 | CC(C)CC(N)=O | 136 to 137
81 | Brc1ccc(Oc2ccccc2)cc1 | 18 to 18.7
82 | O=[N+]([O-])c1cccc2c([N+](=O)[O-])cccc12 | 216 to 219
83 | C=CC(C)(C)C | -115
84 | Nc1ccncc1 | 158 to 159
85 | CCCCCCCCCCCCCC=O | 20.5 to 24
86 | Fc1ccc(-c2ccccc2)cc1 | 74 to 74.2
87 | CC(C)(C)OO | -8 to -3
88 | O=Cc1ccnc2ccccc12 | 50 to 51
89 | O=C(O)[C@@H]1CCCN1C(=O)OCc1ccccc1 | 76 to 77
90 | O=C[C@H](O)[C@@H](O)[C@@H](O)[C@H](O)CO | 166 to 167
91 | O=C1OC(=O)c2ccccc21 | 131 to 132
92 | COc1ccc(OC)c(C=O)c1 | 49 to 52
93 | Fc1c(F)c(F)c(C(F)(F)F)c(F)c1F | -66 to -65.6
94 | O=Cc1cc(O)ccc1O | 98 to 99
95 | CCCC(C)C1(CC)C(=O)NC(=O)NC1=O (stereo not given) | 130
96 | O=[N+]([O-])c1ccccc1O | 44 to 46
97 | Clc1nc(Cl)nc(Nc2ccccc2Cl)n1 | 160
98 | ClC(Cl)Cl | -63.6 to -63

Row | SMILES | melting point [°C]
99 | O=C(O)COc1cccc(Cl)c1 | 108 to 110
100 | CCOS(=O)(=O)OCC | -25 to -24
101 | Nc1ccc(N)c2c1C(=O)c1ccccc1C2=O | 263 to 268
102 | CC(C)c1ccc(CO)cc1 | 27 to 28
103 | Nc1cc(Cl)c(Cl)cc1Cl | 94 to 96.5
104 | OCC(Cl)(Cl)Cl | 18 to 19
105 | COCCOc1c(OC)cc(Cc2cnc(N)nc2N)cc1OC | 154
106 | CCOC(=O)CCl | -26 to -21
107 | O=C(O)c1ccc(CO)cc1 | 181 to 182
108 | CCCCCCCC(=O)O | 15.8 to 17
109 | C=CCC1(C(C)C)C(=O)NC(=O)NC1=O | 141 to 143
110 | CCCCCCCCCCl | -39.4 to -39
111 | FC(F)(F)C(F)(F)F | -101 to -100
112 | CC(C)(C)C(=O)CC#N | 68 to 71
113 | CC(=O)c1ccc(C)s1 | 26 to 27.5
114 | N#Cc1ccccc1 | -13 to -12.7
115 | O=P(Oc1ccccc1)(Oc1ccccc1)Oc1ccccc1 | 50 to 50.5
116 | OCc1cccc(Oc2ccccc2)c1 | 6 to 10
117 | CCCCCCCC1CCCCC1 | -31 to -30
118 | N#Cc1ccccc1Br | 55 to 55.5
119 | N#Cc1cc(Cl)cc(Cl)c1 | 64 to 66
120 | O=C(O)CCCCCc1ccccc1 | 18 to 23
121 | Cc1ccc2cc3c(ccc4ccccc43)c3c2c1CC3 | 180
122 | CCCCCl | -123

Row | SMILES | melting point [°C]
123 | CCC(=O)O | -21.1 to -20.7
124 | Cc1cccc(C(=O)O)c1O | 165 to 166
125 | CC1(C)COC(=O)C1O (stereo not given) | 90 to 92
126 | ClCCOCCCl | -51.9 to -47
127 | O=C1CCCCCCCCCCCCCCO1 | 32 to 35
128 | OCc1ccccc1Cl | 70 to 73
129 | N#Cc1cccnc1 | 50 to 51
130 | O=[N+]([O-])c1cc(Br)ccc1Br | 82 to 85.5
131 | O=S(=O)(c1ccccc1)c1ccccc1 | 128
132 | CCCCCCCCCCc1ccccc1 | -14.4 to -14
133 | CC(C)(C)C#N | 15 to 17
134 | Cc1cc(C)[nH]n1 | 107 to 108
135 | Oc1cccc(O)c1O | 132 to 134
136 | Oc1ccc(Cl)cc1Cl | 42 to 45
137 | CNC(=O)CSP(=S)(OC)OC | 51.5 to 52
138 | ClCC(Cl)CCl | -15 to -14
139 | O=C(O)COc1ccc(Cl)cc1Cl | 138 to 140
140 | C1CSCCS1 | 111 to 112
141 | COC(=O)c1cccc(I)c1 | 54 to 54.5
142 | O=C(O)CCCCC(=O)O | 152 to 153
143 | Oc1ccccc1I | 38.5 to 43
144 | N#CCc1cccc(Cl)c1 | 11.5 to 12
145 | CC(C)=O | -95 to -94
146 | Nc1ccccn1 | 57.5 to 58

Row | SMILES | melting point [°C]
147 | NC(=O)c1cccs1 | 181 to 182
148 | C[Si]1(C)N[Si](C)(C)N[Si](C)(C)N[Si](C)(C)N1 | 96 to 97.5
149 | O=[N+]([O-])c1ccc(Cl)c(Cl)c1 | 39 to 43
150 | CCCCCCCCCCO | 6 to 7
151 | N#CCc1ccccc1 | -24 to -23.8
152 | CCBr | -119
153 | Nc1ccc(C2CCCCC2)cc1 | 53 to 54.5
154 | BrCc1ccccc1CBr | 94 to 95
155 | Cc1cc(C)c(C)c(Br)c1C | 56 to 60
156 | Nc1c(Cl)cc([N+](=O)[O-])cc1[N+](=O)[O-] | 154 to 157
157 | CC(C)CCCl | -104
158 | O=C(Cl)c1ccc(Cl)cc1 | 12 to 16
159 | ClCc1ccc(Cl)cc1 | 28 to 31
160 | CC(C)CBr | -119 to -117
161 | O=C(O)CCCCCCCCCCCCCCCO | 98 to 99
162 | COP(=S)(OC)SCn1nnc2ccccc2c1=O | 72 to 73
163 | c1ccc(-c2ccc(-c3ccccc3)cc2)cc1 | 210 to 214
164 | CCCCl | -123 to -122
165 | CCCN(CC1CC1)c1c([N+](=O)[O-])cc(C(F)(F)F)cc1[N+](=O)[O-] | 32 to 32.5
166 | O=[N+]([O-])c1cc([N+](=O)[O-])c2ccccc2c1O | 131 to 132
167 | O=C(O)C=Cc1ccccc1C(F)(F)F | 202 to 206
168 | ClCCCCl | -100 to -99.5
169 | N#Cc1cccc(C=O)c1 | 76.5 to 77
170 | CCCCCCCCCCc1ccc(N)cc1 | 24 to 25
